From patent US20080262080A1, “Allergy Suppressive Agent” (KYUSHU UNIVERSITY, NATIONAL UNIVERSITY CORPORATION, priority 2004, published 2008) come the findings set out here.

Test [1] relates to germline IgE heavy chain transcription (εGT). Put plainly: Suppression of IL-4-induced germline IgE heavy chain transcript (εGT) expression in DND39 cells (RT-PCR, blot). The format is cell-based, human. The conditions noted are these: IL-4 (25 U/ml), chrysin at various concentrations, 48 hours. The method, then:
IL-4 (25 U/ml) and chrysin at various concentrations were added to human mature B cell line DND39 cells and then the cells were incubated for 48 hours. mRNA was collected from the cells and cDNA was synthesized. An RT-PCR amplification product was electrophoresed on an agarose gel and transferred onto a membrane and εGT was thus detected. GAPDH (glyceraldehyde-3-phosphate dehydrogenase) was employed as a control. For each concentration or the control, the blot in the right side indicates the result in a 1/10 amount.
As described above, the inhibition of the εGT expression brings about fundamental suppression of IgE production. It is known that human mature B cell line DND39 expresses εGT in response to a stimulus by IL-4. Thus, DND39 cells were incubated in the presence of IL-4 and chrysin and the effect of chrysin on the εGT expression was examined.
Human mature B cell line DND39 was subcultured in a RPMI 1640 medium (Nissui), to which 5% of FBS (Intergen) had been added, at 37° C. and 5% CO2 vapor saturation and maintained therein. […]
The density of DND39 cells was adjusted to 2×10^5 cells/mL and incubated in the presence of IL-4 (25 U/mL) and chrysin at each concentration. […] Then, the RNA concentration was measured using a spectrophotometer Ultrospec 3000 (Pharmacia Biotech, Piscatway, N.J.). […]

The test system of test [2] is blood antibody level (IgM, IgG, IgA, IgE). As to the kind of experiment: Blood antibody level of mice antigen-sensitized with ovalbumin (OVA) after chrysin intake (ELISA). It counts as in vivo, mouse. How it is done:
Male BALB/c mice aged 8 weeks were divided into an AIN-93M-fed group (a control group) and a chrysin-comprising AIN-93M-fed group. After feeding with the individual feeds for 3 weeks, both groups were fed with the AIN-93M feed for 2 weeks. Each feed was given at a ratio of 5 g/day/animal while the animals were allowed to take water ad libitum. OVA-sensitization was conducted by injecting 100 μg of OVA/aluminum hydroxide gel into the peritoneal cavity of each mouse 1 and 2 weeks after the initiation of the feed, i.e., twice in total. On day 35, blood samples were collected and the total IgM, IgG and IgE levels in the serum were measured by ELISA. Reagents employed in ELISA for quantifying the antibody were as follows. In blocking, use was made of PBS comprising 1% of bovine serum albumin (Roche) (BSA-PBS). As solid phase antibodies, use was made of F(ab′)2 goat anti-mouse IgG antibody (Zymed Laboratories, Inc.), F(ab′)2 rabbit anti-mouse IgM antibody (Zymed Laboratories, Inc.) and rabbit anti-mouse IgA (Zymed Laboratories, Inc.). As secondary antibodies, use was made of HRP-labeled F(ab′)2 goat anti-mouse IgG(H(L) antibody (Zymed Laboratories, Inc.), HRP-labeled rabbit anti-mouse IgM antibody (Zymed Laboratories, Inc.) and HRP-labeled goat anti-mouse IgA antibody (Zymed Laboratories, Inc.). 2,2′-Anizo-bis(3-ethylbenzothiazoline-6-sulfonic acid) diammonium salt (ABTS) employed as a color development substrate was purchased from Wako Pure Chemical Industries, while oxalic acid was purchased from Nacalai tesque (Kyoto, Japan). A solid phase antibody solution (diluted 1000-fold with a 50 mM carbonate buffer) was pipetted into an immunoplate at a ratio of 100 μL/well and allowed to stand overnight at 4° C. After washing thrice with PBS comprising 0.1% of polyoxyethylene sorbitan monolaurate (Nacalai tesque) (TPBS), 300 μL/well of BSA-PBS was pipetted and incubation was conducted for 2 hours at 37° C. After washing thrice with TPBS, a sample and a standard solution, which were optionally diluted with BSA-PBS, were added at a ratio of 50 μL/well and allowed to stand overnight at 4° C. After washing thrice with TPBS, 100 μL/well of a secondary antibody solution (diluted 2000-fold with BSA-PBS) was pipetted and incubation was conducted for 1 hour at 37° C. After washing thrice with TPBS, 100 μL/well of a color development substrate solution was pipetted and color development was carried out. Then, 100 μL/well of oxalic acid was pipetted to cease the reaction and the absorbance was measured at 415 to 490 nm. As the color development substrate solution, a mixture of a 0.006% H2O2— comprising 0.2 M citrate buffer (pH 4.0), deionized water and a 10.94 mM ABTS solution (10:9:1) was employed. In the case of IgE, the procedure indicated in the protocol attached to a mouse IgE assay kit (Morinaga Biochemistry Lab.) was followed. Absorbance was measured using Immuno Mini NJ-2300 (Nippon Intermed).
(In an ELISA, binding on a coated surface is turned into a signal by an enzyme label.)

Where [3] appears, read: serum, day 35, BALB/c mice OVA-sensitized, chrysin-comprising feed 3 weeks.

Structures are written as SMILES.

As for `O=c1cc(-c2ccccc2)oc2cc(O)cc(O)c12` [Chrysin, 5,7-dihydroxyflavone], in test [1], the εGT expression result is given as “concentration-dependently suppressed”. The “blood IgE level compared with the control group” value in test [2] (OVA-sensitized mice, in words) was “significantly lowered”. The “effect of chrysin intake on blood IgM, IgG and IgA levels” value in test [2] (OVA-sensitized mice, in words, vs control group) is given as “no effect”. Also, in test [2] (setting [3]), the IgA is 0.6 ± 0.0 mg/mL, the IgG is reported as 23.5 ± 3.0 mg/mL and the IgM worked out at 5.4 ± 0.2 mg/mL.
